In patent publication US20260103474A1, “NOVEL COMPOUNDS FOR THE DIAGNOSIS OF TDP-43 PROTEINOPATHIES” (AC IMMUNE SA, priority 2022, published 2026):

Key:
[1] = target: T1, Human brain derived TDP-43 aggregates (Homo sapiens, UniProt Q13148); assay: Micro-radiobinding competition assay for binding affinity to TDP-43; conditions: for Ki: 0.24 nM to 2 μM vs tritiated reference ligand at 40 nM; for Human brain derived TDP-43 aggregates Mean % competition at 250 nM: non-radiolabeled compound at 250 nM vs tritiated reference ligand at 40 nM; for Human brain derived TDP-43 aggregates Mean % competition at 250 nM / Human brain derived TDP-43 aggregates Mean % competition at 2 μM: FTD sarkosyl-insoluble brain extracts; for Human brain derived TDP-43 aggregates Mean % competition at 2 μM: non-radiolabeled compound at 2 μM vs tritiated reference ligand at 40 nM
T1 construct: Human FTD sarkosyl-insoluble brain extracts were spotted onto microarray slides
Procedure: (§1) Human brain extracts were prepared as described in Laferriere et al., 2019, Nature Neurosc. A sample of brain tissue (frontal or temporal cortex) was homogenized at 1:4 (w/v) ratio in the homogenization-solubilization (HS) buffer at 4° C. using tissue homogenizer (Precellys) with CKmix homogenization tubes. The following sequence was used for homogenization: 3 cycles of 30 seconds at 5000 rpm (with 15 seconds pause between each cycle). Homogenized samples were aliquoted and stored at −80° C. in 1.5 mL low protein binding tubes.
(§2) Brain homogenates were thawed on ice and resuspended in HS buffer to obtain a final concentration of 2% sarkosyl, 1 unit/μL Benzonase and 1 mM MgCl2. The samples were then incubated at 37° C. under constant shaking at 600 rpm on a thermomixer for 45 minutes (min). The supernatants were collected in a new tube (sarkosyl-soluble fraction, S1). The pellet was resuspended in 1000 μL of myelin floatation buffer and centrifuged at 20,000 g for 60 min at 4° C. The supernatant was carefully removed to remove all the floating lipids. This step was repeated if all the lipids could not be removed in a single step. The pellet was subsequently washed with Phosphate-Buffered Saline (PBS) and centrifuged for 30 min at 20,000 g at 4° C. The final pellet was resuspended in 200 μL PBS and stored at −80° C. (sarkosyl-insoluble fraction). The samples were analyzed by immunoblotting in denaturing conditions.
Human FTD sarkosyl-insoluble brain extracts were spotted onto microarray slides. The slides were incubated with a tritiated reference ligand at 40 nM, and the example compounds (non-radiolabeled) at 2 μM and 250 nM. […] After incubation, slides were washed and scanned by a real-time autoradiography system (BeaQuant, ai4R). Quantification of the signal was performed by using the Beamage image analysis software (ai4R). Non-specific signal was determined with an excess of non-radiolabeled reference compound (2 μM) and specific binding was calculated by subtracting the non-specific signal from the total signal. Competition was calculated as percent, where 0% was defined as the specific binding in the presence of vehicle and 100% as the values obtained in the presence of excess of the non-radiolabeled reference compound. Ki values were calculated in GraphPad Prism8 by applying a nonlinear regression curve fit using a one site, specific binding model. Measurements were performed with at least two technical replicates in the two-concentration competition experiment and with one technical replicate in the experiments including a range of concentrations. For compounds tested in more than one experiment, the mean of the replicates or Ki values in independent experiments is reported.

[2] = target: human FTD Type A sarkosyl-insoluble brain extracts (Homo sapiens, UniProt Q13148); assay: Kd determination by micro-radiobinding assay on FTD Type A extracts; type: binding; conditions: tritiated compound 1.29 to 300 nM
Procedure: as §1, §2
Human FTD sarkosyl-insoluble brain extracts were spotted onto microarray slides. The slides were incubated with [^3H]-Compounds 1, 7, 8, 9, 15, 16 and 17 in a range of concentrations, varying from 1.29 to 300 nM. After incubation, slides were washed and scanned by a real-time autoradiography system (BeaQuant, ai4R). Quantification of the signal was performed by using the Beamage image analysis software (ai4R). Non-specific signal was determined with an excess of non-radiolabeled compound 1, 7, 8, 9, 15, 16 and 17 (1 μM), respectively, and specific binding was calculated by subtracting the non-specific signal from the total signal.
The Kd (Dissociation constant) and R^2 (parameter ranging between 0.0 and 1.0 that quantifies the goodness of fit, and the best curve fit obtained with value of 1.0) were obtained by fitting the specific binding data with non-linear regression analysis, using a one-site specific binding model in GraphPad Prism8.

TDP-43 aggregates = TDP-43 aggregates (Homo sapiens, UniProt Q13148); assay: Micro-autoradiography staining in brain sections from patients with FTD; type: binding; parameters: from tissue; host or cells: frozen post-mortem human brain sections (FTLD-TDP type A and type B; non-demented controls in the classical autoradiography); conditions: 120 nM
Procedure: All tissues were collected from donors for or from whom a written informed consent for a brain autopsy and the use of the material and clinical information for research purposes had been obtained by the respective brain banks. All samples were anonymized and coded. Frozen brain tissue blocks with confirmed TDP-43 pathology upon autopsy were processed using a cryotome to generate sections of 10 μm in thickness and mounted on glass slides. Sections were kept at −80° C. until use.
Brain sections were immunostained using a commercially available antibody, specific for phosphorylated serine at amino acid 409/410 (anti-pTDP-43 pS409/410, Biolegend, 829901). Sections were fixed for 15 minutes at 4° C. with 4% formaldehyde (Sigma, 252549) and washed three times for height minutes with 1×PBS (Dulbecco's phosphate buffered saline, Sigma D1408) at room temperature. Next, sections were saturated and permeabilized in blocking buffer (PBS, 10% normal goat serum (NGS), 0.25% Triton X-100) for one hour at room temperature and incubated overnight at 4° C. with primary antibody against pTDP-43 (diluted at 1/500 in PBS, 5% NGS, 0.25% Triton X-100). The following day, sections were washed three times for height minutes with 1×PBS before incubation with a secondary, AlexaFluor633-labeled goat-anti-rat antibody (Invitrogen, A-21094, diluted at 1/500 in PBS) for 45 minutes at room temperature. Following incubation with […] antibodies the sections were washed three times in PBS before being processed further.
For micro-autoradiography, tritiated test compound ([^3H]-Compound 1, [^3H]-Compound 9 or [^3H]-Compound 17 respectively) was incubated on the sections at 120 nM in 50 mM Tris buffer pH 7.4 for 45 minutes at room temperature. Sections were then washed as follows: once in ice-cold 50 mM Tris-HCl pH 7.4 buffer for one minute, twice in ice-cold 70% ethanol for one minute, once in ice-cold 50 mM Tris-HCl pH 7.4 buffer for one minute and finally rinsed briefly in ice-cold distilled water. Sections were subsequently dried for one hour under a stream of air and then exposed to Ilford Nuclear Emulsion Type K5 (Agar Scientific, AGP9281) for ten days at 4° C. in a light-proof slide storage box. The sections were developed by immersing them successively in the following solutions: 1.) Ilford Phenisol Developer (1:5 dilution in H2O, Agar Scientific, AGP9106) for four minutes, 2.) Ilfostop solution (1:20 dilution in H2O, Agar Scientific, AGP9104) for two minutes, 3.) Ilford Hypam Fixer (1:5 dilution in H2O, Agar Scientific, AGP9183) for four minutes and finally rinsed with H2O for 10 minutes.
For image acquisition, sections were mounted using ProLong Gold Antifade reagent (Invitrogen P36930) and imaged on a Panoramic250 Slide Scanner (3DHistech) with a 40× objective capturing brightfield and fluorescent images separately or on a Panoramic Scan II (3DHistech) with a 20× objective. The Visiopharm image analysis software suite was used to align the fluorescent image with the brightfield image.

T1 sequence (Q13148 261-414 limits assumed): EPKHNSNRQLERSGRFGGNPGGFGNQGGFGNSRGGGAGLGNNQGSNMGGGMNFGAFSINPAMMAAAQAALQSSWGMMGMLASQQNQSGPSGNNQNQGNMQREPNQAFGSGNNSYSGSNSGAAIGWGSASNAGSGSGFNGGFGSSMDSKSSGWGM
TDP-43 aggregates, sequence (Q13148 whole entry): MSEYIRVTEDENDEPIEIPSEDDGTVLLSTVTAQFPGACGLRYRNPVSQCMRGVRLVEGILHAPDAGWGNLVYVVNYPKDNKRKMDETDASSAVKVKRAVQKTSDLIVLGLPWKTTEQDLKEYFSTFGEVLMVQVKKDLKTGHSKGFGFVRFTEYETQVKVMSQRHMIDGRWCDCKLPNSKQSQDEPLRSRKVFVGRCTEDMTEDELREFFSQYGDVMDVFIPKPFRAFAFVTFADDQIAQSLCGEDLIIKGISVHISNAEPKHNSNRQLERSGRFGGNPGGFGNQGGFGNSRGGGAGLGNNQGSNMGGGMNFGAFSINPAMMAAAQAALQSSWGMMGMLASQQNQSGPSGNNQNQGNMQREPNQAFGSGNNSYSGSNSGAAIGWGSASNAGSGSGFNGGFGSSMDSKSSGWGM
human FTD Type A sarkosyl-insoluble brain extracts, sequence (Q13148 263-414 limits assumed): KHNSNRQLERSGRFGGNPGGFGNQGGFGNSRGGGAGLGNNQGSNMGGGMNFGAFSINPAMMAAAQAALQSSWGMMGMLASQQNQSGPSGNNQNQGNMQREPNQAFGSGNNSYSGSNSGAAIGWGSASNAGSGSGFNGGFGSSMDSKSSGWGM

Kd [2] | Micro-autoradiography silver grain signal versus pTDP-43 immunostaining (TDP-43 aggregates; FTLD-TDP type A brain sections) | Micro-autoradiography silver grain signal versus pTDP-43 immunostaining (TDP-43 aggregates; FTLD-TDP type B brain sections) | Structure (SMILES) | Ki [1] | Human brain derived TDP-43 aggregates Mean % competition at 250 nM [1] | Human brain derived TDP-43 aggregates Mean % competition at 2 μM [1]
– | – | – | O=C1c2sc(-c3ccc(N4CC[C@@H](F)C4)nc3F)nc2CCN1c1cccnc1 [Compound 1, 2-[2-fluoro-6-[(3R)-3-fluoropyrrolidin-1-yl]-3-pyridyl]-5-(3-pyridyl)-6,7-dihydrothiazolo[5,4-c]pyridin-4-one] | 22 nM | 65% | 78%
– | – | – | O=C1c2sc(-c3ccc(N4CCC(CO)CC4)nc3F)nc2CCN1c1cccnc1 [Compound 17, 2-(2-fluoro-6-(4-(hydroxymethyl)piperidin-1-yl)pyridin-3-yl)-5-(pyridin-3-yl)-6,7-dihydrothiazolo[5,4-c]pyridin-4(5H)-one] | 41 nM | 73% | 85%
69 ± 21 nM | colocalization with pTDP-43 aggregates | same colocalization was observed | [3H]c1cncc(N2CCc3nc(-c4cc([3H])c(N5CC[C@@H](F)C5)nc4F)sc3C2=O)c1 [[^3H]-Compound 1, tritiated 2-[2-fluoro-6-[(3R)-3-fluoropyrrolidin-1-yl]-3-pyridyl]-5-(3-pyridyl)-6,7-dihydrothiazolo[5,4-c]pyridin-4-one] | – | – | –
25 ± 6 nM | colocalization with pTDP-43 aggregates | same colocalization was observed | [3H]C([3H])(O)C1CCN(c2ccc(-c3nc4c(s3)C(=O)N(c3cccnc3)CC4)c(F)n2)CC1 [[^3H]-Compound 17, 2-(2-fluoro-6-(4-(hydroxymethyl-t2)piperidin-1-yl)pyridin-3-yl)-5-(pyridin-3-yl)-6,7-dihydrothiazolo[5,4-c]pyridin-4(5H)-one] | – | – | –
